pIC50: −log10 of the molar value. Like-named read-outs stand apart in the source and are kept apart here.
Legend:
[1] = molecular target: T1, heteromeric α7β2-nAChRs on MS/DB cholinergic neurons (Rattus norvegicus, UniProt P12390+Q05941); format: cell-based; details: for form-dependent suppression of choline-induced responses: 1 nM of the peptide form
T1 construct: functional nAChRs naturally expressed on rat MS/DB cholinergic neurons; endogenous in cells; host or cells: acutely dissociated MS/DB neurons of 2-4 week-old Wistar rats
T1 sequence (Q05941 23-502): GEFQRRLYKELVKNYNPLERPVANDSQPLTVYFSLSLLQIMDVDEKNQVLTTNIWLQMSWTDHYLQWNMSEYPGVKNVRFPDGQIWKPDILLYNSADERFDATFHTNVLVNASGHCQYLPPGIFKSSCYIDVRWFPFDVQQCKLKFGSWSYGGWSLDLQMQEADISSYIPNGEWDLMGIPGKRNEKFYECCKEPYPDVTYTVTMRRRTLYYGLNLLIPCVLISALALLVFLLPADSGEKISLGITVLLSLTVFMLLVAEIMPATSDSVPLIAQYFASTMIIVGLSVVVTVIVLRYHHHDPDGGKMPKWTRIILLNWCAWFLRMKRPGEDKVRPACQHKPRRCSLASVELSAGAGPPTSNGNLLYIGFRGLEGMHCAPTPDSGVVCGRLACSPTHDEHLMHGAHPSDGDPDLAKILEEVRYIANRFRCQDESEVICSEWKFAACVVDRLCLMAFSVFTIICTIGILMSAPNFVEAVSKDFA
T1 sequence (P12390 25-500): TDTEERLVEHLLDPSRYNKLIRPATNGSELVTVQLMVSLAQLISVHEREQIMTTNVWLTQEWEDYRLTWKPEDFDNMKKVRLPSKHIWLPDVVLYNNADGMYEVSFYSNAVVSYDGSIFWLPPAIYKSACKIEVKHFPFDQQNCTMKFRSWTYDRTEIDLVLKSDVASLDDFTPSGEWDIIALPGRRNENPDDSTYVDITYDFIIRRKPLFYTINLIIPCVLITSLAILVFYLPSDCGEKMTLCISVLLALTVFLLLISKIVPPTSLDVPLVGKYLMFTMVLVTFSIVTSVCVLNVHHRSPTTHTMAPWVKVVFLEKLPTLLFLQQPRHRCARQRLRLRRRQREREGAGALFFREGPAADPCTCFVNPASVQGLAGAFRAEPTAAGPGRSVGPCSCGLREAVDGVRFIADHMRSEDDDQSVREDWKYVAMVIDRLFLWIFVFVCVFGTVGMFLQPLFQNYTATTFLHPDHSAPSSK
Description: (§1) Briefly, each postnatal 2-4 week-old Wistar rat or mouse (wild-type C57/B16 or nAChR β2 knockout mice on a C57/B16 background kindly provided by Dr. Marina Picciotto, Yale University) was anesthetized using isoflurane, and the brain was rapidly removed. Several 400-μm coronal slices, which contained the medial septum/diagonal band (MS/DB) or the ventral tegmental area (VTA), were cut using a vibratome (Vibratorne 1000 plus; Jed Pella Inc., Redding, Calif.) in cold (2-4° C.) artificial cerebrospinal fluid (ACSF) and continuously bubbled with carbogen (95% O2-5% CO2). The slices were then incubated in a pre-incubation chamber (Warner Ins., Holliston, Mass.) and allowed to recover for at least 1 h at room temperature ([…]) in oxygenated ACSF. Thereafter, the slices were treated with pronase (1 mg/6 mL) at 31° C. for 30 min and subsequently treated with the same concentration of thermolysin for another 30 min. The MS/DB or VTA region was micropunched out from the slices using a well-polished needle. […] In particular, perforated-patch recording was used to maintain the intracellular ATP concentration at a physiological level. To prepare for perforated-patch whole-cell recording, glass microelectrodes (GC-1.5; Narishige, East Meadow, N.Y.) were fashioned on a two-stage vertical pipette puller (P-830; Narishige, East Meadow, N.Y.), and the resistance of the electrode was 3 to 5 MΩ when filled with the internal solution. A tight seal (>2 GΩ) was formed between the electrode tip and the cell surface, which was followed by a transition from on-cell to whole-cell recording mode due to the partitioning of amphotericin B into the membrane underlying the patch. After whole-cell formation, an access resistance lower than 60 MΩ was acceptable during perforated-patch recordings in current-clamp mode, and an access resistance lower than 30 MΩ was acceptable during voltage-clamp recordings. The series resistance was not compensated in the experiments using dissociated neurons. Under current-clamp configuration, membrane potentials were measured using a patch-clamp amplifier (200B; Axon Instruments, Foster City, Calif.). […] All experiments were performed at room temperature (22±1° C.).

[2] = molecular target: T2, homomeric α7-nAChRs on VTA DAergic neurons (Rattus norvegicus, UniProt Q05941); format: cell-based
T2 construct: native nAChR responses in rat MS/DB or VTA neurons; endogenous in cells; host or cells: acutely dissociated VTA dopaminergic neurons of Wistar rats
T2 sequence (Q05941 23-502): as the sequence (Q05941 23-502) above
Description: as §1

[3] = molecular target: T3, heterologously expressed heteromeric α7β2-nAChRs (Rattus norvegicus, UniProt P12390+Q05941); format: cell-based; details: oocytes; 10 mM choline; compared with homomeric α7-nAChR
T3 construct: expressed in transfected cells; host or cells: Xenopus laevis oocytes injected with cRNA (vector pGEMHE)
T3 sequence (Q05941 23-502): as above
T3 sequence (P12390 25-500): as the sequence (P12390 25-500) above
Description: The frogs were then allowed to recover from surgery before being returned to the incubation tank. The lobes were cut into small pieces and digested with 0.08 Wunsch U/mL liberase blendzyme 3 (Roche Applied Science, Indianapolis, Ind.) with constant stirring at room temperature for 1.5-2 h. The dispersed oocytes were thoroughly rinsed with incubation solution. Stage VI oocytes were selected and incubated at 16° C. before injection. Micropipettes used for injection were pulled from borosilicate glass (Drummond Scientific, Broomall, Pa.). cRNAs encoding α7 or β2 at proper dilution were injected into oocytes separately or in different ratios using a Nanoject microinjection system (Drummond Scientific, Broomall, Pa.) at a total volume of ˜20-60 nL.
The chamber was grounded through an agarose bridge. The oocytes were voltage-clamped at −70 mV to measure ACh (or choline)-induced currents using GeneClamp 500B (Axon Instruments, Foster City, Calif.).

[4] = molecular target: T4, α7-containing-nAChRs on MS/DB neurons from nAChR β2 knockout mice (Mus musculus, UniProt P49582); format: cell-based
T4 construct: endogenous in cells; host or cells: acutely dissociated MS/DB neurons of nAChR β2 subunit knockout mice (C57/Bl6 background)
T4 sequence (P49582 23-502): as the sequence (Q05941 23-502) above, with A402T counted along it
Description: (§3) Briefly, each postnatal 2-4 week-old Wistar rat or mouse (wild-type C57/B16 or nAChR β2 knockout mice on a C57/B16 background kindly provided by Dr. Marina Picciotto, Yale University) was anesthetized using isoflurane, and the brain was rapidly removed. Several 400-μm coronal slices, which contained the medial septum/diagonal band (MS/DB) or the ventral tegmental area (VTA), were cut using a vibratome (Vibratorne 1000 plus; Jed Pella Inc., Redding, Calif.) in cold (2-4° C.) artificial cerebrospinal fluid (ACSF) and continuously bubbled with carbogen (95% O2-5% CO2). The slices were then incubated in a pre-incubation chamber (Warner Ins., Holliston, Mass.) and allowed to recover for at least 1 h at room temperature (22±PC) in oxygenated ACSF. Thereafter, the slices were treated with pronase (1 mg/6 mL) at 31° C. for 30 min and subsequently treated with the same concentration of thermolysin for another 30 min. The MS/DB or VTA region was micropunched out from the slices using a well-polished needle. […] In particular, perforated-patch recording was used to maintain the intracellular ATP concentration at a physiological level. […] Under current-clamp configuration, membrane potentials were measured using a patch-clamp amplifier (200B; Axon Instruments, Foster City, Calif.). […]

MS/DB neurons = experiment: Current-clamp recording of spontaneous action potential firing in dissociated MS/DB neurons; format: cell-based, rat; details: 1 μM
Description: as §3

[5] = molecular target: T5, α7β2-nAChRs on MS/DB neurons from wild-type mice (Mus musculus, UniProt P49582+Q9ERK7); experiment: Whole-cell current recordings, MS/DB neurons from wild-type mice; format: cell-based; details: 1 nM peptide
T5 construct: heteromeric α7β2-nAChRs exist in rodent basal forebrain cholinergic neurons; endogenous in cells; host or cells: acutely dissociated MS/DB neurons of wild-type C57/Bl6 mice
T5 sequence (P49582 23-502): as the sequence (Q05941 23-502) above, with A402T counted along it
T5 sequence (Q9ERK7 26-501): as the sequence (P12390 25-500) above, with A350T, V371M, R379Q, T383A, P387L, V391M, V449I, P468S counted along it
Description: as §3

GABAA receptors = experiment: GABA-induced whole-cell currents in rat MS/DB cholinergic neurons; format: cell-based; details: 1 nM peptide; 0.1 mM GABA
Description: (§2) Briefly, each postnatal 2-4 week-old Wistar rat or mouse (wild-type C57/B16 or nAChR β2 knockout mice on a C57/B16 background kindly provided by Dr. Marina Picciotto, Yale University) was anesthetized using isoflurane, and the brain was rapidly removed. Several 400-μm coronal slices, which contained the medial septum/diagonal band (MS/DB) or the ventral tegmental area (VTA), were cut using a vibratome (Vibratorne 1000 plus; Jed Pella Inc., Redding, Calif.) in cold (2-4° C.) artificial cerebrospinal fluid (ACSF) and continuously bubbled with carbogen (95% O2-5% CO2). The slices were then incubated in a pre-incubation chamber (Warner Ins., Holliston, Mass.) and allowed to recover for at least 1 h at room temperature ([…]) in oxygenated ACSF. Thereafter, the slices were treated with pronase (1 mg/6 mL) at 31° C. for 30 min and subsequently treated with the same concentration of thermolysin for another 30 min. The MS/DB or VTA region was micropunched out from the slices using a well-polished needle. […] In particular, perforated-patch recording was used to maintain the intracellular ATP concentration at a physiological level. […] Under current-clamp configuration, membrane potentials were measured using a patch-clamp amplifier (200B; Axon Instruments, Foster City, Calif.). […]

[6] = tested on: ionotropic glutamate receptors; experiment: Glutamate-induced whole-cell currents in rat MS/DB cholinergic neurons; format: cell-based; details: 1 nM peptide; 1 mM glutamate
Description: as §2

## CO[C@H]1CC=C2CCN3CCC4=C(CC(=O)OC4)[C@]23C1 [DHβE, dihydro-β-erythroidine]
[1]; 10 mM choline, MS/DB neurons, n=8
  Hill coefficient, inhibition of choline-induced currents: 0.9
[1]; 10 mM choline, MS/DB neurons, n=8, read-out: IC50, inhibition of choline-induced currents
  pIC50: 6.77
[1]; MS/DB neurons compared with VTA neurons
  potency difference as inhibitor of choline-induced current, MS/DB vs VTA neurons: ~500 fold
[2]; 10 mM choline, VTA neurons
  Hill coefficient, inhibition of choline-induced currents: 0.3
[2]; 10 mM choline, VTA neurons, n=7, read-out: IC50, inhibition of choline-induced currents
  pIC50: < 4.00
[3]
  sensitivity to functional blockade, α7β2- vs α7-nAChR: more sensitive
[4]; MS/DB neurons from β2 knockouts compared with wild-type
  sensitivity of choline-induced currents to antagonist: lower sensitivity

## oligomeric Aβ1-42: Aβ1-42 reconstituted in distilled water, predominantly oligomeric form
[1]; MS/DB neurons
  form-dependent suppression of choline-induced responses: greatest suppression

## monomeric Aβ1-42: Aβ1-42 reconstituted in DMSO, predominant monomeric form
[1]; MS/DB neurons
  form-dependent suppression of choline-induced responses: failed to suppress

## C[C@@H]1O[C@H](C[N+](C)(C)C)C[C@H]1O [muscarine]
MS/DB neurons
  effect on spontaneous action potential firing: insensitive

## fibrillar Aβ: Aβ1-42 stock incubated at 37° C. for 48 h at pH 6.0, predominantly fibrillar form
[1]; MS/DB neurons
  form-dependent suppression of choline-induced responses: weaker inhibitory effect

## CNCC/C=C/c1cccnc1 [RJR-2403]
[1]
  agonist-evoked inward current compared with ACh-induced response: insensitive
[2]
  agonist-evoked current compared with ACh-induced response: mimicked

## Aβ1-42: amyloid beta peptides at positions 1-42 of the amyloid precursor protein, purchased from rPeptide
[1]
  effect on choline-induced currents: progressively inhibited with time
[1]; 0.1 nM peptide, MS/DB neurons
  effect on choline-induced currents: negligible
[1]; 1 nM peptide, 1 mM ACh, MS/DB neurons
  effect on ACh-induced current: evident
[1]; 1 nM, recovery after 6 min of peptide washout
  reversibility of inhibition of choline responses: reversibly
[2]; 1 nM peptide, VTA DAergic neurons
  effect on choline-induced currents: not sensitive
[5]
  effect on choline-induced currents: did suppress
[4]; 1 nM peptide, MS/DB neurons from β2−/− mice
  effect on choline-induced currents: failed to suppress
GABAA receptors
  inhibition of GABA-induced currents: insensitive
[6]
  inhibition of glutamate-induced currents: insensitive
